Molecular target: T1, H3R membranes (human histamine 3 receptor) (Homo sapiens, UniProt Q9Y5N1)
T1 construct: expressed in transfected cells; pcDNA3.1(+) vector, G418 selection)
Test: [35S] GTP γ [S] Binding Assay
Type: biochemical
Conditions: inhibition of [35S]GTPγS binding to membranes from H3R8-expressing HEK293 cells in the presence of agonist R(−)alpha methylhistamine
Method: Membranes isolated as described in (Preparation of Histamine Receptor Subtype Membranes) were used in a [35S]GTPχS functional assay. Binding of [35S]GTPχS to membranes indicates agonist activity. Compounds of the invention of Formula I were tested for their ability to inhibit binding in the presence of agonists. Alternately, the same transfected cell lines were used for a cAMP assay wherein H3R agonists inhibited forskolin-activated synthesis of cAMP. Compounds of Formula I were tested for their ability to permit forskolin-stimulated cAMP synthesis in the presence of agonist. cDNA for the human histamine 3 receptor was cloned and expressed as described in (A. Preparation H1R membranes), above. Transfected cells were selected using G418 ([…]), grown, and tested for histamine binding by the SPA described above. For total binding, cells were assayed in a SPA reaction described above containing 50 mM Tris-HCL (assay buffer), pH 7.6, 1 mg wheat germ agglutinin SPA beads (Amersham Pharmacia Biotech, #RPNQ0001), and 1 nM (^3H)-n-alpha-methylhistamine (NEN, NET1027) (total volume per well=200 μl). Thioperimide was added to determine non-specific binding. Several clones were selected as positive for binding, and a single clone (H3R8) was used to prepare membranes for binding studies described above. […] Plates were counted in Wallac Trilux 1450 Microbeta scintillation counter for 1 minute. […]

T1 sequence (Q9Y5N1 whole entry): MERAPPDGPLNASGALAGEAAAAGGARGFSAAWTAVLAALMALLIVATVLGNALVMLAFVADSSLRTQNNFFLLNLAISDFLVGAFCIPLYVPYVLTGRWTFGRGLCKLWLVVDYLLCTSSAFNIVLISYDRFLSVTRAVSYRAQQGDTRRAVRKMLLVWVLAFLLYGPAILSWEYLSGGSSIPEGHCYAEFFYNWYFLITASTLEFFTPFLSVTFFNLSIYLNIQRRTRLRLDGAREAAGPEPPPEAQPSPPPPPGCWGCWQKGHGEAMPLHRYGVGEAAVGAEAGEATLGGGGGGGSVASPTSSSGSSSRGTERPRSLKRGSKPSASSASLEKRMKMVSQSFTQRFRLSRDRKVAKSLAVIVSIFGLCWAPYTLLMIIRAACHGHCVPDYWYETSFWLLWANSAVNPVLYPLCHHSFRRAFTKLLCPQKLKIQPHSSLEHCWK

Row | Ki [µM] | SMILES
1 | 0.019 | COc1ccc(COc2ccc(C(=O)N3CCC[C@H]3CN3CCCC3)cc2)cc1
2 | 0.0041 | O=C(c1ccc(OCc2cnccn2)cc1)N1CCC[C@H]1CN1CCCC1

Reference: patent publication US7696234B2, “Histamine H3 receptor agents, preparation and therapeutic uses” (Eli Lilly and Company, priority 2004, dated 2010)
